# Source: patent US11957661B2, “JAK1 pathway inhibitors for the treatment of vitiligo” (Incyte Corporation, priority 2020, dated 2024)
# pIC50: −log10 of the molar value.
# How the values were obtained:
# human JAK1 = human JAK1 (Homo sapiens, UniProt P23458); experiment: In vitro JAK kinase assay (HTRF, Example A); type: biochemical; conditions: 1 mM ATP
# Description: (§1) The catalytic activity of JAK1, JAK2 or JAK3 was assayed by measuring the phosphorylation of a biotinylated peptide. The phosphorylated peptide was detected by homogenous time resolved fluorescence (HTRF). […] Reactions were carried out at room temperature for 1 hour and then stopped with 20 μL 45 mM EDTA, 300 nM SA-APC, 6 nM Eu-Py20 in assay buffer (Perkin Elmer, Boston, MA). Binding to the Europium labeled antibody took place for 40 minutes and HTRF signal was measured on a Fusion plate reader (Perkin Elmer, Boston, MA).
# human JAK2 = human JAK2 (Homo sapiens (Human), UniProt O60674); experiment: In vitro JAK kinase assay (HTRF, Example A); type: biochemical; conditions: JAK2/JAK1 IC50 ratio, 1 mM ATP
# Sequence of human JAK2 (O60674 828-1132): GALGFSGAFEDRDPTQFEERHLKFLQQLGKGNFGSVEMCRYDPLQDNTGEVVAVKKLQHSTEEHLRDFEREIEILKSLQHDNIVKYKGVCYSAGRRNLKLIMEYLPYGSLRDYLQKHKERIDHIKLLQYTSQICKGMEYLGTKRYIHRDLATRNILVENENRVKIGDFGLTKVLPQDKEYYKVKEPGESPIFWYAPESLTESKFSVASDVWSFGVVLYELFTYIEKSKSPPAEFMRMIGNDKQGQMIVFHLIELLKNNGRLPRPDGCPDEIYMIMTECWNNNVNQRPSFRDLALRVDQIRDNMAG
# Description: as §1
Compound,pIC50 (human JAK1),JAK2/JAK1 (human JAK2)
"N#CCC1(n2cc(-c3ncnc4[nH]ccc34)cn2)CN([C@H]2CC[C@@H](Oc3cc(CN4CC[C@H](O)C4)cc(C(F)(F)F)n3)CC2)C1 [Compound 22, {1-(cis-4-{[4-{[(3S)-3-hydroxypyrrolidin-1-yl]methyl}-6-(trifluoromethyl)pyridin-2-yl]oxy}cyclohexyl)-3-[4-(7H-pyrrolo[2,3-d]pyrimidin-4-yl)-1H-pyrazol-1-yl]azetidin-3-yl}acetonitrile]",> 8.00,>10
"CCNCc1cc(O[C@H]2CC[C@@H](N3CC(CC#N)(n4cc(-c5ncnc6[nH]ccc56)cn4)C3)CC2)nc(C(F)(F)F)c1 [Compound 19, {1-(cis-4-{[4-[(ethylamino)methyl]-6-(trifluoromethyl)pyridin-2-yl]oxy}cyclohexyl)-3-[4-(7H-pyrrolo[2,3-d]pyrimidin-4-yl)-1H-pyrazol-1-yl]azetidin-3-yl}acetonitrile]",> 8.00,>10
"C[C@@H](O)c1nc2cnc3ccsc3c2n1[C@H]1CC[C@H](CC#N)OC1 [Compound 5, ((2R,5S)-5-{2-[(1R)-1-hydroxyethyl]-1H-imidazo[4,5-d]thieno[3,2-b]pyridin-1-yl}tetrahydro-2H-pyran-2-yl)acetonitrile]",> 7.00,>10
"C[C@@H](O)CNCc1cc(OC2CCN([C@H]3C[C@](CC#N)(n4cc(-c5ncnc6[nH]ccc56)cn4)C3)CC2)nc(C(F)(F)F)c1 [Compound 24, {trans-3-(4-{[4-({[(2R)-2-hydroxypropyl]amino}meth-yl)-6-(trifluoromethyl)pyridin-2-yl]oxy}piperidin-1-yl)-1-[4-(7H-pyrrolo[2,3-d]pyrimidin-4-yl)-1H-pyrazol-1-yl]cyclobutyl}acetonitrile]",> 8.00,>10
"N#CC[C@]1(n2cc(-c3ncnc4[nH]ccc34)cn2)C[C@H](N2CCC(Oc3cc(CN4CCC[C@@H]4CO)cc(C(F)(F)F)n3)CC2)C1 [Compound 13, {trans-3-(4-{[4-{[(2R)-2-(hydroxymethyl)pyrrolidin-1-yl]methyl}-6-(trifluoromethyl)pyridin-2-yl]oxy}piperidin-1-yl)-1-[4-(7H-pyrrolo[2,3-d]pyrimidin-4-yl)-1H-pyrazol-1-yl]cyclobutyl}acetonitrile]",> 8.00,>10
"C[C@H](O)CNCc1cc(OC2CCN([C@H]3C[C@](CC#N)(n4cc(-c5ncnc6[nH]ccc56)cn4)C3)CC2)nc(C(F)(F)F)c1 [Compound 25, {trans-3-(4-{[4-({[(2S)-2-hydroxypropyl]amino}meth-yl)-6-(trifluoromethyl)pyridin-2-yl]oxy}piperidin-1-yl)-1-[4-(7H-pyrrolo[2,3-d]pyrimidin-4-yl)-1H-pyrazol-1-yl]cyclobutyl}acetonitrile]",> 8.00,>10
"N#CC[C@]1(n2cc(-c3ncnc4[nH]ccc34)cn2)C[C@H](N2CCC(Oc3cc(CN4CCC[C@H]4CO)cc(C(F)(F)F)n3)CC2)C1 [Compound 12, {trans-3-(4-{[4-{[(2S)-2-(hydroxymethyl)pyrrolidin-1-yl]methyl}-6-(trifluoromethyl)pyridin-2-yl]oxy}piperidin-1-yl)-1-[4-(7H-pyrrolo[2,3-d]pyrimidin-4-yl)-1H-pyrazol-1-yl]cyclobutyl}acetonitrile]",> 8.00,>10
"N#CCC1(n2cc(-c3ncnc4[nH]ccc34)cn2)CN(C2CCN(C(=O)c3ccnc(C(F)(F)F)n3)CC2)C1 [Compound 3, [3-[4-(7H-pyrrolo[2,3-d]pyrimidin-4-yl)-1H-pyrazol-1-yl]-1-(1-{[2-(trifluoromethyl)pyrimidin-4-yl]carbonyl}piperidin-4-yl)azetidin-3-yl]acetonitrile]",> 8.00,>10
"N#CCC(C1CCN(c2nc3cccnc3o2)C1)n1cc(-c2ncnc3[nH]ccc23)cn1 (centres unmarked) [Compound 7, 3-(1-[1,3]oxazolo[5,4-b]pyridin-2-ylpyrrolidin-3-yl)-3-[4-(7H-pyrrolo[2,3-d]pyrimidin-4-yl)-1H-pyrazol-1-yl]propanenitrile]",> 8.00,>10
"N#CCC1(n2cc(-c3ncnc4[nH]ccc34)cn2)CN(C2CCN(C(=O)c3ccnc(C(F)(F)F)c3F)CC2)C1 [Compound 4, {1-{1-[3-Fluoro-2-(trifluoromethyl)isonicotinoyl]piperidin-4-yl}-3-[4-(7H-pyrrolo[2,3-d]pyrimidin-4-yl)-1H-pyrazol-1-yl]azetidin-3-yl}acetonitrile]",> 8.00,>10
"N#CC[C@]1(n2cc(-c3ncnc4[nH]ccc34)cn2)C[C@H](N2CCC(Oc3cc(CN4CC(O)C4)cc(C(F)(F)F)n3)CC2)C1 [Compound 11, {trans-3-(4-{[4-[(3-hydroxyazetidin-1-yl)methyl]-6-(trifluoromethyl)pyridin-2-yl]oxy}piperidin-1-yl)-1-[4-(7H-pyrrolo[2,3-d]pyrimidin-4-yl)-1H-pyrazol-1-yl]cyclobutyl}acetonitrile]",> 8.00,>10
"C[C@H](NC(=O)c1cc(F)c(N2CC(CC#N)(n3cc(-c4ncnc5[nH]ccc45)cn3)C2)cc1F)C(F)(F)F [Compound 16, 4-{3-(cyanomethyl)-3-[4-(7H-pyrrolo[2,3-d]pyrimidin-4-yl)-1H-pyrazol-1-yl]azetidin-1-yl}-2,5-difluoro-N-[(1S)-2,2,2-trifluoro-1-methylethyl]benzamide]",> 8.00,>10
"N#CCC1(n2cc(-c3ncnc4[nH]ccc34)cn2)CN(C2CCN(C(=O)Nc3ccc(F)cc3C(F)(F)F)CC2)C1 [Compound 2, 4-{3-(Cyanomethyl)-3-[4-(7H-pyrrolo[2,3-d]pyrimidin-4-yl)-1H-pyrazol-1-yl]azetidin-1-yl}-N-[4-fluoro-2-(trifluoromethyl)phenyl]pipe-ridine-1-carboxamide]",> 8.00,>10
"N#CC[C@]1(n2cc(-c3ncnc4[nH]ccc34)cn2)C[C@H](N2CCN(C(=O)c3ccnc(C(F)(F)F)n3)CC2)C1 [Compound 10, [trans-1-[4-(7H-pyrrolo[2,3-d]pyrimidin-4-yl)-1H-pyrazol-1-yl]-3-(4-{[2-(trifluoromethyl)pyrimidin-4-yl]carbonyl}piperazin-1-yl)cyclobutyl]acetonitrile]",> 8.00,>10
"N#CCC(CN1CCN(C(=O)c2ccc(C#N)cc2F)CC1)n1ccc(-c2ncnc3[nH]ccc23)c1 (centres unmarked) [Compound 9, 4-[(4-{3-cyano-2-[3-(7H-pyrrolo[2,3-d]pyrimidin-4-yl)-1H-pyrrol-1-yl]propyl}piperazin-1-yl)carbonyl]-3-fluorobenzonitrile]",> 8.00,>10
"N#CCC1(n2cc(-c3ncnc4[nH]ccc34)cn2)CN([C@H]2CC[C@@H](Oc3cc(CCO)nc(C(F)(F)F)n3)CC2)C1 [Compound 18, {1-(cis-4-{[6-(2-hydroxyethyl)-2-(trifluoromethyl)pyrimidin-4-yl]oxy}cyclohexyl)-3-[4-(7H-pyrrolo[2,3-d]pyrimidin-4-yl)-1H-pyrazol-1-yl]azetidin-3-yl}acetonitrile]",> 8.00,>10
